Our source for the EC50 values is patent publication US20110021487A1, “CYCLOALKOXY-SUBSTITUTED 4-PHENYL-3,5-DICYANOPYRIDINES AND THEIR USE” (BAYER SCHERING PHARMA AKTIENGESELLSCHAFT, priority 2008, published 2011).

Common to all, as to type: cell-based
One experiment has as its target T1, adenosine A1 receptor (Homo sapiens, UniProt P30542).
T1 construct: expressed in transfected cells; host or cells: CHO (Chinese Hamster Ovary)
T1 sequence (P30542 1-326): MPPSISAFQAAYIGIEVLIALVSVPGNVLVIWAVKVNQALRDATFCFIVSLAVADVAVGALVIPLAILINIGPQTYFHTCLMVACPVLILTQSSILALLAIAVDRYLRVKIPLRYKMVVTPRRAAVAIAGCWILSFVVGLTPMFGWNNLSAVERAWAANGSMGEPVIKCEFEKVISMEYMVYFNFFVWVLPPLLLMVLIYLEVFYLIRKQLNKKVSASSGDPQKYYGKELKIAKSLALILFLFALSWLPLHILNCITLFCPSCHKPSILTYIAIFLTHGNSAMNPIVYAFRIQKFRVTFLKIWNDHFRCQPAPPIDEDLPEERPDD
As to the kind of experiment: Indirect determination of adenosine agonism by gene expression (luciferase reporter), A1 cells. The settings on record: CHO cells stably transfected with A1 receptor cDNA; 1 μM forskolin; 50% inhibition of luciferase answer. From the text:
(§1) Cells of the CHO (Chinese Hamster Ovary) permanent cell line are transfected stably with the cDNA for the adenosine receptor subtypes A1, A2a and A2b. The adenosine A1 receptors are coupled to the adenylate cyclase by way of Gi proteins, while the adenosine A2a and A2b receptors are coupled by way of Gs proteins. In correspondence with this, the formation of cAMP in the cell is inhibited or stimulated, respectively. After that, expression of the luciferase is modulated by way of a cAMP-dependent promoter. The luciferase test is optimized, with the aim of high sensitivity and reproducibility, low variance and good suitability for implementation on a robot system, by varying several test parameters, such as cell density, duration of the growth phase and the test incubation, forskolin concentration and medium composition. The following test protocol is used for pharmacologically characterizing cells and for the robot-assisted substance screening:
(§2) The stock cultures are grown, at 37° C. and under 5% CO2, in DMEM/F12 medium containing 10% FCS (fetal calf serum) and in each case split 1:10 after 2-3 days. The test cultures are seeded in 384-well plates with 2000 cells per well and grown at 37° C. for approx. 48 hours. The medium is then replaced with a physiological sodium chloride solution (130 mM sodium chloride, 5 mM potassium chloride, 2 mM calcium chloride, 20 mM HEPES, 1 mM magnesium chloride hexahydrate, 5 mM sodium bicarbonate, pH 7.4). The substances to be tested, which are dissolved in DMSO, are pipetted into the test cultures (maximum final concentration of DMSO in the test mixture: 0.5%) in a dilution series of from 5×10^−11M to 3×10^−6M (final concentration). 10 minutes later, forskolin is added to the A1 cells and all the cultures are subsequently incubated at 37° C. for four hours. After that, 35 μl of a solution which is composed of 50% lysis reagent (30 mM disodium hydrogenphosphate, 10% glycerol, 3% TritonX100, 25 mM TrisHCl, 2 mM dithiotreitol (DTT), pH 7.8) and 50% luciferase substrate solution (2.5 mM ATP, 0.5 mM luciferin, 0.1 mM coenzyme A, 10 mM tricine, 1.35 mM magnesium sulfate, 15 mM DTT, pH 7.8) are added to the test cultures, which are shaken for approx. 1 minute and the luciferase activity is measured using a camera system. The EC50 values are determined, i.e., the concentrations at which 50% of the luciferase answer is inhibited in the case of the A1 cell, and, respectively, 50% of the maximum stimulation with the corresponding substance is achieved in the case of the A2b and A2a cells. […] Pharmacol., 357 (1998), 1-9].

Another experiment concerns the target T2, adenosine A2a receptor (Homo sapiens, UniProt P29274).
T2 construct: expressed in transfected cells; host or cells: CHO (Chinese Hamster Ovary)
As to the kind of experiment: Indirect determination of adenosine agonism by gene expression (luciferase reporter), A2a cells. The settings on record: CHO cells stably transfected with A2a receptor cDNA; 50% of maximum stimulation.
From the text: as §1, §2

The next experiment has as its target T3, adenosine A2b receptor (Homo sapiens, UniProt P29275).
T3 construct: expressed in transfected cells; host or cells: CHO (Chinese Hamster Ovary)
T3 sequence (P29275 1-332): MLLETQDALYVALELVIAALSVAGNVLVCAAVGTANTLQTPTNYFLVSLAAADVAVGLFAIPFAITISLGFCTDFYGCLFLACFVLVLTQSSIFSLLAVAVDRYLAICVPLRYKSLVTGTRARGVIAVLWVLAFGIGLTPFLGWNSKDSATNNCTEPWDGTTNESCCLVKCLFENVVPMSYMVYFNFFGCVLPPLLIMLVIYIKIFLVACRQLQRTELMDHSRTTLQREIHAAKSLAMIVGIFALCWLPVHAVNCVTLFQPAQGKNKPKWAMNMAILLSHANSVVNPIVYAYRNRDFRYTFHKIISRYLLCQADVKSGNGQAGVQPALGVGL
As to the kind of experiment: Indirect determination of adenosine agonism by gene expression (luciferase reporter), A2b cells. The settings on record: CHO cells stably transfected with A2b receptor cDNA; 50% of maximum stimulation.
From the text: as §1, §2

T2 sequence (P29274 whole entry): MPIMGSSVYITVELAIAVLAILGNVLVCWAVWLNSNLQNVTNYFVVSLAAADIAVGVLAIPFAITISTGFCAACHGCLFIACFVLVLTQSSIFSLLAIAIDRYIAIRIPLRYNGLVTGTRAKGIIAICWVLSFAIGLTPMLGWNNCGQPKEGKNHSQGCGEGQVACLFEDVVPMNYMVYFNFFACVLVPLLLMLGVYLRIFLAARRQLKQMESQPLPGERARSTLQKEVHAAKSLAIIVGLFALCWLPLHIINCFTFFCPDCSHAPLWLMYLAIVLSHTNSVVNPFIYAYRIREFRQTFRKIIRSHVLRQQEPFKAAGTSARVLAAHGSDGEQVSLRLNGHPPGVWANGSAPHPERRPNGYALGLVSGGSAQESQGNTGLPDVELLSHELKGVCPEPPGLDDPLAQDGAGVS

Regarding `N#Cc1c(N)nc(SCc2cscn2)c(C#N)c1-c1ccc(O[C@H]2CCCC[C@@H]2O)cc1` [Example 14], the figures for the EC50 at adenosine A1 receptor, at adenosine A2a receptor and on adenosine A2b receptor were 56 nM, 1920 nM and 16 nM, respectively.
`N#Cc1c(SCc2csc(-c3ccc(Cl)cc3)n2)nc(N2CC(O)C2)c(C#N)c1-c1ccc(O[C@H]2COC[C@@H]2O)cc1` (single isomer, unassigned) [Example 29, ent-trans-2-({[2-(4-Chlorophenyl)-1,3-thiazol-4-yl]methyl}sulfanyl)-6-(3-hydroxyazetidin-1-yl)-4-(4-{[4-hydroxytetrahydrofuran-3-yl]oxy}phenyl)pyridine-3,5-dicarbonitrile]: the EC50 on adenosine A1 receptor came out at 0.18 nM; on adenosine A2a receptor it was 1270 nM.
As for `N#Cc1ccccc1CSc1nc(N)c(C#N)c(-c2ccc(O[C@H]3CCCC[C@@H]3O)cc2)c1C#N` (single isomer, unassigned) [Example 23, ent-trans-2-Amino-6-[(2-cyanobenzyl)sulfanyl]-4-(4-{[2-hydroxycyclohexyl]oxy}-phenyl)pyridine-3,5-dicarbonitrile], the 50% effective concentration (EC50) was found to be 168 nM at adenosine A1 receptor, 518 nM on adenosine A2a receptor and 6.9 nM on adenosine A2b receptor.
The corresponding values for `N#Cc1c(N)nc(SCc2cccc(C(N)=O)c2)c(C#N)c1-c1ccc(OC2CCOC2)cc1` (stereo not shown) [Example 43] are 0.16 nM, 424 nM and 537 nM.
The corresponding values for `CNC(=O)c1cc(CSc2nc(N)c(C#N)c(-c3ccc(OC4CCOC4)cc3)c2C#N)ccn1` (stereo not shown) [Example 44] are 0.08 nM, 69 nM and 234 nM.
For the compound `Cc1oc(-c2ccc(C(=O)O)cc2)nc1CSc1nc(N)c(C#N)c(-c2ccc(OC3CCOC3)cc2)c1C#N` (racemic) [Example 49, rac-4-{4-[({6-Amino-3,5-dicyano-4-[4-(tetrahydrofuran-3-yloxy)phenyl]pyridin-2-yl}thio)methyl]-5-methyl-1,3-oxazol-2-yl}benzoic acid], the figures for the EC50 on adenosine A1 receptor and on adenosine A2a receptor were 0.22 nM and 782 nM, respectively.
On to `CNC(=O)c1nc(CSc2nc(N)c(C#N)c(-c3ccc(OC4CCOC4)cc3)c2C#N)cs1` (racemic) [Example 51, rac-4-[({6-Amino-3,5-dicyano-4-[4-(tetrahydrofuran-3-yloxy)phenyl]pyridin-2-yl}sulfanyl)methyl]-N-methyl-1,3-thiazole-2-carboxamide], for which the concentration for a half-maximal effect (EC50) at adenosine A1 receptor turned out to be 0.51 nM; at adenosine A2a receptor, 261 nM; at adenosine A2b receptor, 177 nM.
Taken in the same sequence, the figures for `N#Cc1c(N)nc(SCc2csc(C(N)=O)n2)c(C#N)c1-c1ccc(OC2CCOC2)cc1` (racemic) [Example 50, rac-4-[({6-Amino-3,5-dicyano-4-[4-(tetrahydrofuran-3-yloxy)phenyl]pyridin-2-yl}sulfanyl)methyl]-1,3-thiazole-2-carboxamide] were 0.78 nM, 1100 nM and 556 nM.
Taken in the same sequence, the figures for `N#Cc1c(N)nc(SCc2ccccn2)c(C#N)c1-c1ccc(O[C@H]2COC[C@@H]2O)cc1` (single isomer, unassigned) [Example 32, ent-trans-2-Amino-4-(4-{[4-hydroxytetrahydrofuran-3-yl]oxy}phenyl)-6-[(pyridin-2-ylmethyl)thio]pyridine-3,5-dicarbonitrile] were 0.86 nM, 144 nM and 720 nM.
Compound `COC(=O)c1cccc(C(C)Sc2nc(N)c(C#N)c(-c3ccc(OC4CCOC4)cc3)c2C#N)c1` (single isomer, unassigned; ent-3) [Example 64, Methyl ent-3-[1-({6-amino-3,5-dicyano-4-[4-(tetrahydrofuran-3-yloxy)phenyl]pyridin-2-yl}sulfanyl)ethyl]benzoate] yielded an EC50 on adenosine A1 receptor of 4.1 nM.
Turning to `N#Cc1c(N)nc(SCc2cccc(C(N)=O)c2)c(C#N)c1-c1ccc(OC2CCOC2)c(F)c1` (stereo not shown) [Example 58], the EC50 on adenosine A1 receptor worked out at 0.63 nM; on adenosine A2a receptor, 909 nM; on adenosine A2b receptor it was 1010 nM.
In the case of `N#Cc1c(N)nc(SCc2csc(-c3ccc(Cl)cc3)n2)c(C#N)c1-c1ccc(O[C@H]2COC[C@@H]2O)cc1` (racemic) [Example 24, rac-trans-2-Amino-6-({[2-(4-chlorophenyl)-1,3-thiazol-4-yl]methyl}thio)-4-(4-{[4-hydroxytetrahydrofuran-3-yl]oxy}phenyl)pyridine-3,5-dicarbonitrile], the EC50 was found to be 0.14 nM at adenosine A1 receptor and 506 nM at adenosine A2a receptor.
As to `N#Cc1c(N)nc(SCc2cccnc2)c(C#N)c1-c1ccc(O[C@H]2CCCC[C@@H]2O)cc1` [Example 8], the EC50 on adenosine A1 receptor was 6.9 nM; at adenosine A2a receptor, 497 nM; at adenosine A2b receptor, 2.4 nM.
As for `N#Cc1c(N)nc(SCc2c[nH]cn2)c(C#N)c1-c1ccc(O[C@H]2CCCC[C@@H]2O)cc1` [Example 10], the 50% effective concentration (EC50) amounted to 265 nM at adenosine A1 receptor and 4.3 nM at adenosine A2b receptor.
Taken in the same sequence, the figures for `CC(Sc1nc(N)c(C#N)c(-c2ccc(OC3CCOC3)cc2)c1C#N)c1cccc(C(N)=O)c1` (single isomer, unassigned; ent-3) [Example 66, ent-3-[1-({6-Amino-3,5-dicyano-4-[4-(tetrahydrofuran-3-yloxy)phenyl]pyridin-2-yl}-sulfanyl)ethyl]benzamide] were 0.53 nM and 1780 nM.
For `N#Cc1c(N)nc(SCc2csc(Nc3ccc(F)cc3)n2)c(C#N)c1-c1ccc(O[C@H]2COC[C@@H]2O)cc1` (single isomer, unassigned) [Example 35, ent-trans-2-Amino-6-[({2-[(4-fluorophenyl)amino]-1,3-thiazol-4-yl}methyl)thio]-4-(4-{[4-hydroxytetrahydrofuran-3-yl]oxy}phenyl)pyridine-3,5-dicarbonitrile], the EC50 turned out to be 0.56 nM at adenosine A1 receptor, 874 nM at adenosine A2a receptor and 43 nM at adenosine A2b receptor.
Taken in the same sequence, the figures for `N#Cc1c(N)nc(SCc2cccnc2)c(C#N)c1-c1ccc(O[C@H]2CCC[C@H]2O)cc1` (racemic) [Example 41, rac-cis-2-Amino-4-(4-{[2-hydroxycyclopentyl]oxy}phenyl)-6-[(pyridin-3-ylmethyl)sulfanyl]pyridine-3,5-dicarbonitrile] were 2.9 nM, 480 nM and 11 nM.
On to `N#Cc1c(N)nc(SCc2csc(N)n2)c(C#N)c1-c1ccc(O[C@H]2CCCC[C@@H]2O)cc1` [Example 9], for which the EC50 on adenosine A1 receptor is 104 nM; at adenosine A2b receptor it was 3.9 nM.
